{"source": "ChEMBL document CHEMBL6153062", "about": "“Design, Synthesis, and Unprecedented Interactions of Covalent Dipeptide-Based Inhibitors of SARS-CoV-2 Main Protease and Its Variants Displaying Potent Antiviral Activity” (J Med Chem, 2025)", "key": {"[1]": {"assay": "Inhibition of SARS-CoV-2 MPro E166 V mutant", "set-up": "species or system Severe acute respiratory syndrome coronavirus 2"}, "[2]": {"assay": "Inhibition of SARS-CoV-2 MPro H172Y mutant", "set-up": "species or system Severe acute respiratory syndrome coronavirus 2"}, "[3]": {"assay": "Inhibition of SARS-CoV-2 MPro H172Q mutant", "set-up": "species or system Severe acute respiratory syndrome coronavirus 2"}, "[4]": {"assay": "Inhibition of SARS-CoV-2 MPro S144Y mutant", "set-up": "species or system Severe acute respiratory syndrome coronavirus 2"}, "[5]": {"assay": "Inhibition of SARS-CoV-2 MPro L50F/E166A/L167F mutant", "set-up": "species or system Severe acute respiratory syndrome coronavirus 2"}, "[6]": {"assay": "Inhibition of SARS-CoV-2 MPro M165T mutant", "set-up": "species or system Severe acute respiratory syndrome coronavirus 2"}, "[7]": {"assay": "Inhibition of SARS-CoV-2 MPro deltaP168 mutant", "set-up": "species or system Severe acute respiratory syndrome coronavirus 2"}, "[8]": {"assay": "Inhibition of SARS-CoV-2 MPro G143S mutant", "set-up": "species or system Severe acute respiratory syndrome coronavirus 2"}, "[9]": {"assay": "Inhibition of SARS-CoV-2 MPro H172F mutant", "set-up": "species or system Severe acute respiratory syndrome coronavirus 2"}, "[10]": {"assay": "Inhibition of SARS-CoV-2 MPro S144M mutant", "set-up": "species or system Severe acute respiratory syndrome coronavirus 2"}, "[11]": {"assay": "Inhibition of SARS-CoV-2 MPro S144F mutant", "set-up": "species or system Severe acute respiratory syndrome coronavirus 2"}, "[12]": {"assay": "Inhibition of SARS-CoV-2 MPro Q192S mutant", "set-up": "species or system Severe acute respiratory syndrome coronavirus 2"}, "[13]": {"assay": "Inhibition of SARS-CoV-2 MPro A173 V mutant", "set-up": "species or system Severe acute respiratory syndrome coronavirus 2"}, "[14]": {"assay": "Inhibition of SARS-CoV-2 MPro S144A mutant", "set-up": "species or system Severe acute respiratory syndrome coronavirus 2"}, "[15]": {"assay": "Inhibition of SARS-CoV-2 MPro S144G mutant", "set-up": "species or system Severe acute respiratory syndrome coronavirus 2"}, "[16]": {"assay": "Inhibition of SARS-CoV-2 MPro Q189E mutant", "set-up": "species or system Severe acute respiratory syndrome coronavirus 2"}, "[17]": {"system": "Severe acute respiratory syndrome coronavirus 2", "assay": "Selectivity index, ratio of IC50 for inhibition of SARS-CoV-2 MPro H172Q mutant to IC50 for inhibition of wild type SARS-CoV-2 MPro"}, "[18]": {"system": "Severe acute respiratory syndrome coronavirus 2", "assay": "Selectivity index, ratio of IC50 for inhibition of SARS-CoV-2 MPro S144Y mutant to IC50 for inhibition of wild type SARS-CoV-2 MPro"}, "[19]": {"system": "Severe acute respiratory syndrome coronavirus 2", "assay": "Selectivity index, ratio of IC50 for inhibition of SARS-CoV-2 MPro H172Y mutant to IC50 for inhibition of wild type SARS-CoV-2 MPro"}, "[20]": {"system": "Severe acute respiratory syndrome coronavirus 2", "assay": "Selectivity index, ratio of IC50 for inhibition of SARS-CoV-2 MPro H172F mutant to IC50 for inhibition of wild type SARS-CoV-2 MPro"}, "[21]": {"system": "Severe acute respiratory syndrome coronavirus 2", "assay": "Selectivity index, ratio of IC50 for inhibition of SARS-CoV-2 MPro M165T mutant to IC50 for inhibition of wild type SARS-CoV-2 MPro"}, "[22]": {"system": "Severe acute respiratory syndrome coronavirus 2", "assay": "Selectivity index, ratio of IC50 for inhibition of SARS-CoV-2 MPro S144F mutant to IC50 for inhibition of wild type SARS-CoV-2 MPro"}, "[23]": {"system": "Severe acute respiratory syndrome coronavirus 2", "assay": "Selectivity index, ratio of IC50 for inhibition of SARS-CoV-2 MPro deltaP168 mutant to IC50 for inhibition of wild type SARS-CoV-2 MPro"}, "[24]": {"system": "Severe acute respiratory syndrome coronavirus 2", "assay": "Selectivity index, ratio of IC50 for inhibition of SARS-CoV-2 MPro G143S mutant to IC50 for inhibition of wild type SARS-CoV-2 MPro"}, "[25]": {"system": "Severe acute respiratory syndrome coronavirus 2", "assay": "Selectivity index, ratio of IC50 for inhibition of SARS-CoV-2 MPro Q192S mutant to IC50 for inhibition of wild type SARS-CoV-2 MPro"}, "[26]": {"system": "Severe acute respiratory syndrome coronavirus 2", "assay": "Selectivity index, ratio of IC50 for inhibition of SARS-CoV-2 MPro S144G mutant to IC50 for inhibition of wild type SARS-CoV-2 MPro"}, "[27]": {"system": "Severe acute respiratory syndrome coronavirus 2", "assay": "Selectivity index, ratio of IC50 for inhibition of SARS-CoV-2 MPro L50F/E166A/L167F mutant to IC50 for inhibition of wild type SARS-CoV-2 MPro"}, "[28]": {"system": "Severe acute respiratory syndrome coronavirus 2", "assay": "Selectivity index, ratio of IC50 for inhibition of SARS-CoV-2 MPro S144M mutant to IC50 for inhibition of wild type SARS-CoV-2 MPro"}, "[29]": {"system": "Severe acute respiratory syndrome coronavirus 2", "assay": "Selectivity index, ratio of IC50 for inhibition of SARS-CoV-2 MPro Q189E mutant to IC50 for inhibition of wild type SARS-CoV-2 MPro"}, "[30]": {"system": "Severe acute respiratory syndrome coronavirus 2", "assay": "Selectivity index, ratio of IC50 for inhibition of SARS-CoV-2 MPro E166 V mutant to IC50 for inhibition of wild type SARS-CoV-2 MPro"}, "[31]": {"system": "Severe acute respiratory syndrome coronavirus 2", "assay": "Selectivity index, ratio of IC50 for inhibition of SARS-CoV-2 MPro S144A mutant to IC50 for inhibition of wild type SARS-CoV-2 MPro"}, "[32]": {"system": "Severe acute respiratory syndrome coronavirus 2", "assay": "Selectivity index, ratio of IC50 for inhibition of SARS-CoV-2 MPro A173 V mutant to IC50 for inhibition of wild type SARS-CoV-2 MPro"}}, "data": [{"smiles": "C=CC(=O)[C@H](Cc1ccccc1)NC(=O)[C@H](CC(C)C)NC(=O)COc1ccc(Cl)cc1Cl", "values": [{"measurement": "IC50", "setting": "[1]", "result": 409, "unit": "nM"}, {"measurement": "IC50", "setting": "[2]", "result": 1280, "unit": "nM"}, {"measurement": "IC50", "setting": "[3]", "result": 390, "unit": "nM"}, {"measurement": "IC50", "setting": "[4]", "result": 497, "unit": "nM"}, {"measurement": "IC50", "setting": "[5]", "result": 392, "unit": "nM"}, {"measurement": "IC50", "setting": "[6]", "result": 1390, "unit": "nM"}, {"measurement": "IC50", "setting": "[7]", "result": 368, "unit": "nM"}, {"measurement": "IC50", "setting": "[8]", "result": 230, "unit": "nM"}, {"measurement": "IC50", "setting": "[9]", "result": 313, "unit": "nM"}, {"measurement": "IC50", "setting": "[10]", "result": 745, "unit": "nM"}, {"measurement": "IC50", "setting": "[11]", "result": 636, "unit": "nM"}, {"measurement": "IC50", "setting": "[12]", "result": 488, "unit": "nM"}, {"measurement": "IC50", "setting": "[13]", "result": 140, "unit": "nM"}, {"measurement": "IC50", "setting": "[14]", "result": 328, "unit": "nM"}, {"measurement": "IC50", "setting": "[15]", "result": 472, "unit": "nM"}, {"measurement": "IC50", "setting": "[16]", "result": 714, "unit": "nM"}]}, {"smiles": "CC(C)(C)[C@H](NC(=O)C(F)(F)F)C(=O)N1C[C@H]2[C@@H]([C@H]1C(=O)N[C@H](C#N)C[C@@H]1CCNC1=O)C2(C)C", "values": [{"measurement": "IC50", "setting": "[1]", "result": 2620, "unit": "nM"}, {"measurement": "IC50", "setting": "[4]", "result": 203, "unit": "nM"}, {"measurement": "IC50", "setting": "[5]", "result": 512, "unit": "nM"}, {"measurement": "IC50", "setting": "[6]", "result": 181, "unit": "nM"}, {"measurement": "IC50", "setting": "[7]", "result": 47, "unit": "nM"}, {"measurement": "IC50", "setting": "[9]", "result": 1700, "unit": "nM"}, {"measurement": "IC50", "setting": "[10]", "result": 426, "unit": "nM"}, {"measurement": "IC50", "setting": "[11]", "result": 176, "unit": "nM"}, {"measurement": "IC50", "setting": "[13]", "result": 85.5, "unit": "nM"}, {"measurement": "IC50", "setting": "[14]", "result": 41.7, "unit": "nM"}, {"measurement": "IC50", "setting": "[16]", "result": 199, "unit": "nM"}]}, {"smiles": "C=CC(=O)[C@H](Cc1cccc(Cl)c1)NC(=O)[C@H](CC(C)C)NC(=O)CSc1ccccc1", "values": [{"measurement": "Ratio IC50", "setting": "[17]", "result": 13.6}, {"measurement": "IC50", "setting": "[1]", "result": 236, "unit": "nM"}, {"measurement": "Ratio IC50", "setting": "[18]", "result": 20.9}, {"measurement": "Ratio IC50", "setting": "[19]", "result": 25.4}, {"measurement": "IC50", "setting": "[2]", "result": 297, "unit": "nM"}, {"measurement": "Ratio IC50", "setting": "[20]", "result": 12.5}, {"measurement": "IC50", "setting": "[3]", "result": 159, "unit": "nM"}, {"measurement": "IC50", "setting": "[4]", "result": 244, "unit": "nM"}, {"measurement": "IC50", "setting": "[5]", "result": 239, "unit": "nM"}, {"measurement": "Ratio IC50", "setting": "[21]", "result": 22.2}, {"measurement": "IC50", "setting": "[6]", "result": 260, "unit": "nM"}, {"measurement": "IC50", "setting": "[7]", "result": 65.4, "unit": "nM"}, {"measurement": "IC50", "setting": "[8]", "result": 155, "unit": "nM"}, {"measurement": "IC50", "setting": "[9]", "result": 146, "unit": "nM"}, {"measurement": "Ratio IC50", "setting": "[22]", "result": 18.7}, {"measurement": "Ratio IC50", "setting": "[23]", "result": 5.6}, {"measurement": "IC50", "setting": "[10]", "result": 414, "unit": "nM"}, {"measurement": "Ratio IC50", "setting": "[24]", "result": 13.2}, {"measurement": "Ratio IC50", "setting": "[25]", "result": 22.3}, {"measurement": "IC50", "setting": "[11]", "result": 219, "unit": "nM"}, {"measurement": "IC50", "setting": "[12]", "result": 261, "unit": "nM"}, {"measurement": "Ratio IC50", "setting": "[26]", "result": 21.7}, {"measurement": "Ratio IC50", "setting": "[27]", "result": 20.4}, {"measurement": "Ratio IC50", "setting": "[28]", "result": 35.4}, {"measurement": "Ratio IC50", "setting": "[29]", "result": 18}, {"measurement": "IC50", "setting": "[13]", "result": 82.4, "unit": "nM"}, {"measurement": "IC50", "setting": "[14]", "result": 42.5, "unit": "nM"}, {"measurement": "Ratio IC50", "setting": "[30]", "result": 20.2}, {"measurement": "Ratio IC50", "setting": "[31]", "result": 3.6}, {"measurement": "IC50", "setting": "[15]", "result": 254, "unit": "nM"}, {"measurement": "IC50", "setting": "[16]", "result": 211, "unit": "nM"}, {"measurement": "Ratio IC50", "setting": "[32]", "result": 7}]}]}
